Values quoted from earlier work as cited in patent US20100029771A1, “TREATMENT OF ADDICTIVE DISORDERS” (priority 2008, published 2010).

Legend:
[1] = alcoholic subjects; each drug given individually
[2] = clinical trials
[3] = limited to the first months of treatment

| SMILES | effect on craving [1] | effect on anxiety ([2]; alcoholic and non-alcoholic subjects) | side effect [2] | duration of benefits on alcohol craving and intake [3] [months] |
| --- | --- | --- | --- | --- |
| NCC(CC(=O)O)c1ccc(Cl)cc1 (stereo not shown) [baclofen, 4-amino-3-(4-chlorophenyl)butanoic acid] | reduce craving | reduce anxiety | somnolence being an overwhelming side effect | – |
| O=C1CC[C@@]2(O)[C@H]3Cc4ccc(O)c5c4[C@@]2(CCN3CC2CC2)[C@H]1O5 [naltrexone] | – | – | – | ≤ 3 |
